One assay has as its target NDM-1 (Klebsiella pneumoniae, UniProt C7C422). The assay is described as follows: biochemical. The format is biochemical. The note with it: fluorescence assay with CCF2-FA substrate; read-out: NDM-1 IC50.
The next assay addresses IMP-1 (Serratia marcescens, UniProt P52699). The assay is described as follows: biochemical. It is filed as biochemical. The note with it: fluorescence assay with CCF2-FA substrate; read-out: IMP-1 IC50.
Another assay deals with VIM-1 (Pseudomonas aeruginosa (strain ATCC 15692 / DSM 22644 / CIP 104116 / JCM 14847 / LMG 12228 / 1C / PRS 101 / PAO1), UniProt A0A0F7KYQ8). The assay is described as follows: Enzyme activity: determination of IC50, fluorescence assay with CCF2-FA substrate (VIM-1). It is filed as biochemical.
The subject of assay [1] is Escherichia coli expressing NDM-1 (CLB30016). The assay is described as follows: Antibiotic potentiation activity: synergistic concentration (MITC95) with imipenem, OD600 growth. The format is cell-based. The note with it: CLB30016 (NDM-1), 95% inhibition of bacterial growth. In short, it runs like this:
(§1)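 Steps: colonies grown overnight at 35 °C; resuspended in saline to OD600 0.11–0.15 by strain; diluted 1:100 into 1.1× CAMHB; imipenem then compound added (antibiotic 4 μg/ml in assay); incubated 35 °C for 22–24 h; absorbance measured.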

The subject of assay [2] is Klebsiella pneumoniae expressing VIM-1 (IHMA599644). Described as above. The note with it: IHMA599644 (VIM-1), 95% inhibition of bacterial growth. It is filed as cell-based. The essentials:
as §1

The test system of assay [3] is Serratia marcescens expressing IMP-1 (CL5741). The description is as above. The format is cell-based. The note with it: CL5741 (IMP-1), 95% inhibition of bacterial growth. The essentials: as §1
Setting [4] is: fluorescence assay with CCF2-FA substrate, read-out: VIM-1 IC50.

For orientation: IC50 means the concentration that gives 50% inhibition.

The structures appear in SMILES notation. Read-outs that look alike come from different tables or passages of the source.

Chain of NDM-1 (C7C422 whole entry, looked up, species assumed): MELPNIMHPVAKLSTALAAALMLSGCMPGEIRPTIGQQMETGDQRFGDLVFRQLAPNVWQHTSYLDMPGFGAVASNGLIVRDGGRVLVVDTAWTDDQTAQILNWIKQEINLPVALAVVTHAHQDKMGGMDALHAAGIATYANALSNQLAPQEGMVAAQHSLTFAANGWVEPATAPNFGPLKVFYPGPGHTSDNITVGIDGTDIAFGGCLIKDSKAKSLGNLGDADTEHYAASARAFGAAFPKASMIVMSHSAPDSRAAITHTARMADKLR
Chain of IMP-1 (P52699 whole entry, looked up): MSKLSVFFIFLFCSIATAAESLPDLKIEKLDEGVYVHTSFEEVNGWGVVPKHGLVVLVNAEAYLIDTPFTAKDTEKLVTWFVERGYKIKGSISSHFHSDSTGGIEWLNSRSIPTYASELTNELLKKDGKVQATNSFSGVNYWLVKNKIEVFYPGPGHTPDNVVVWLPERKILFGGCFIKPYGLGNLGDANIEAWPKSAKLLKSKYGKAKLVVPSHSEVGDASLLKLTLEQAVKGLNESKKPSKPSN

As for `NS(=O)(=O)c1c(C(F)(F)F)ccc(N2CC[C@H]3NCCO[C@@H]3C2)c1-c1nnn[nH]1` [Example 773, 3-[(4aR,8aR)-octahydro-6H-pyrido[3,4-b][1,4]oxazin-6-yl]-2-(1H-tetrazol-5-yl)-6-(trifluoromethyl) benzenesulfonamide], the IC50 on NDM-1 came to 31.8 nM; on IMP-1, 17.2 nM; at VIM-1 (setting [4]), 1.11 nM. For the same compound, the “Escherichia coli MITC95” value in assay [1] stood at 6.25 µM. The “Klebsiella pneumoniae MITC95” value in assay [2] was 3.125 µM. Also, in assay [3], the “Serratia marcescens MITC95” value was 6.25 µM.

For the compound `NS(=O)(=O)c1c(C(F)(F)F)ccc(N2CCC(C3CCNCC3)C2)c1-c1nnn[nH]1` (stereo not drawn) [Example 774, 3-(3-piperidin-4-ylpyrrolidin-1-yl)-2-(1H-tetrazol-5-yl)-6-(trifluoromethyl) benzenesulfonamide], the IC50 on NDM-1 came to 62.6 nM; on IMP-1, 29.1 nM; on VIM-1 (VIM-1 IC50, fluorescence assay with CCF2-FA substrate) it was 1.35 nM. Also, the “Escherichia coli MITC95” value in assay [1] was 25 µM. Further, the “Klebsiella pneumoniae MITC95” value in assay [2] was 6.25 µM. In addition, in assay [3], the “Serratia marcescens MITC95” value stood at 25 µM.

With `NS(=O)(=O)c1c(C(F)(F)F)ccc(N2CCC3(CCNC3)CC2)c1-c1nnn[nH]1` [Example 775, 3-(2,8-diazaspiro[4.5]dec-8-yl)-2-(1H-tetrazol-5-yl)-6-(trifluoromethyl) benzenesulfonamide], the results for the IC50 at NDM-1, on IMP-1 and at VIM-1 (setting [4]) were 9.04 nM, 35.8 nM and 5.19 nM, respectively. For the same compound, the “Escherichia coli MITC95” value in assay [1] amounted to 3.125 µM. Further, in assay [2], the “Klebsiella pneumoniae MITC95” value is 12.5 µM. Also, in assay [3], the “Serratia marcescens MITC95” value turned out to be 6.25 µM.

In the case of `NS(=O)(=O)c1c(C(F)(F)F)ccc(N2CCC3(CCCNC3)CC2)c1-c1nnn[nH]1` [Example 776, 3-(2,9-diazaspiro[5.5]undec-9-yl)-2-(1H-tetrazol-5-yl)-6-(trifluoromethyl) benzenesulfonamide], the figures for the IC50 at NDM-1, at IMP-1 and on VIM-1 (setting [4]) were 15.2 nM, 55.9 nM and 15.9 nM, respectively. In addition, the “Escherichia coli MITC95” value in assay [1] was 25 µM. The “Klebsiella pneumoniae MITC95” value in assay [2] turned out to be 25 µM. Moreover, in assay [3], the “Serratia marcescens MITC95” value was 50 µM.

Consider `NS(=O)(=O)c1c(C(F)(F)F)ccc(NC2(C3CCNC3)CC2)c1-c1nnn[nH]1` (stereo not drawn) [Example 777, 3-[(1-pyrrolidin-3-ylcyclopropyl)amino]-2-(1H-tetrazol-5-yl)-6-(trifluoromethyl) benzenesulfonamide], for which the concentration for half-maximal inhibition (IC50) at NDM-1 came out at 23.3 nM; on IMP-1 it was 51.3 nM; at VIM-1 (setting [4]), 6.73 nM. In addition, the “Escherichia coli MITC95” value in assay [1] turned out to be 12.5 µM. The “Klebsiella pneumoniae MITC95” value in assay [2] turned out to be 6.25 µM. Also, the “Serratia marcescens MITC95” value in assay [3] amounted to 12.5 µM.

Take `NC1CCN(c2ccc(C(F)(F)F)c(S(N)(=O)=O)c2-c2nnn[nH]2)CC1` [Example 778, 3-(4-amino-1-piperidyl)-2-(1H-tetrazol-5-yl)-6-(trifluoromethyl) benzenesulfonamide]: the IC50 at NDM-1 is 147 nM; on IMP-1, 160 nM; at VIM-1 (setting [4]) it was 0.688 nM. The “Escherichia coli MITC95” value in assay [1] came to 3.125 µM. The “Klebsiella pneumoniae MITC95” value in assay [2] worked out at 1.172 µM. In addition, in assay [3], the “Serratia marcescens MITC95” value is 1.563 µM.

Regarding `NS(=O)(=O)c1c(C(F)(F)F)ccc(N2CCC(C3CCNCC3)CC2)c1-c1nnn[nH]1` [Example 779, 3-[4-(4-piperidyl)-1-piperidyl]-2-(1H-tetrazol-5-yl)-6-(trifluoromethyl) benzenesulfonamide], the IC50 at NDM-1 is 6.42 nM; on IMP-1, 6.7 nM; at VIM-1 (setting [4]), 0.11 nM. Further, the “Escherichia coli MITC95” value in assay [1] worked out at 1.172 µM. Moreover, in assay [2], the “Klebsiella pneumoniae MITC95” value is 2.344 µM. Besides, in assay [3], the “Serratia marcescens MITC95” value was 0.3906 µM.

As to `NS(=O)(=O)c1c(C(F)(F)F)ccc(N2CCC(N3CCNCC3)CC2)c1-c1nnn[nH]1` [Example 780, 3-(4-piperazin-1-yl-1-piperidyl)-2-(1H-tetrazol-5-yl)-6-(trifluoromethyl) benzenesulfonamide], the IC50 on NDM-1 turned out to be 17.7 nM; at IMP-1, 31.7 nM; on VIM-1 (setting [4]) it was 0.274 nM. The “Escherichia coli MITC95” value in assay [1] was 1.563 µM. For the same compound, in assay [2], the “Klebsiella pneumoniae MITC95” value is 2.344 µM. In addition, the “Serratia marcescens MITC95” value in assay [3] came to 1.563 µM.

In the case of `NS(=O)(=O)c1c(C(F)(F)F)ccc(N2CCC3(CCNCC3)CC2)c1-c1nnn[nH]1` [Example 783, 3-(3,9-diazaspiro[5.5]undecan-3-yl)-2-(1H-tetrazol-5-yl)-6-(trifluoromethyl) benzenesulfonamide], the IC50 was 4.91 nM at NDM-1, 13.4 nM at IMP-1 and 1.93 nM on VIM-1 (setting [4]). Also, the “Escherichia coli MITC95” value in assay [1] is 1.172 µM. In addition, in assay [2], the “Klebsiella pneumoniae MITC95” value is 2.344 µM. In assay [3], the “Serratia marcescens MITC95” value came to 0.5859 µM.

Turning to `CN(C)c1ccc(C(F)(F)F)c(S(N)(=O)=O)c1-c1nnn[nH]1` [Example 784, 3-(dimethylamino)-2-(1H-tetrazol-5-yl)-6-(trifluoromethyl) benzenesulfonamide], the IC50 was 41.7 nM at NDM-1, 48.3 nM on IMP-1 and 15.5 nM on VIM-1 (setting [4]). Also, the “Escherichia coli MITC95” value in assay [1] came to 3.125 µM. Further, the “Klebsiella pneumoniae MITC95” value in assay [2] was 31.25 µM. Besides, in assay [3], the “Serratia marcescens MITC95” value is 3.125 µM.

For the compound `NS(=O)(=O)c1c(C(F)(F)F)ccc(-c2ccc(C3CCN(C4CCNCC4)CC3)cc2)c1-c1nnn[nH]1` [Example 785, 4′-(1,4′-bipiperidin-4-yl)-2-(1H-tetrazol-5-yl)-4-(trifluoromethyl)biphenyl-3-sulfonamide], the figures for the 50% inhibitory concentration (IC50) on NDM-1, on IMP-1 and at VIM-1 (setting [4]) were 4.21 nM, 1.09 nM and 12.2 nM, respectively. Besides, the “Escherichia coli MITC95” value in assay [1] was determined as 1.563 µM. For the same compound, the “Klebsiella pneumoniae MITC95” value in assay [2] is 25 µM. For the same compound, in assay [3], the “Serratia marcescens MITC95” value is 3.125 µM.

For `NC1CCC(N2CCC(c3ccc(-c4ccc(C(F)(F)F)c(S(N)(=O)=O)c4-c4nnn[nH]4)cc3)CC2)C1` (stereo not drawn) [Example 786, 4′-[1-(3-aminocyclopentyl)piperidin-4-yl]-2-(1H-tetrazol-5-y)-4-(trifluoromethyl)biphenyl-3-sulfonamide], the IC50 on NDM-1 was 6.2 nM; at IMP-1, 2.08 nM; on VIM-1 (setting [4]), 12 nM. In assay [1], the “Escherichia coli MITC95” value was 1.563 µM. In addition, in assay [2], the “Klebsiella pneumoniae MITC95” value is 50 µM. In assay [3], the “Serratia marcescens MITC95” value worked out at 3.125 µM.

Turning to `NCC1CCC(N2CCC(c3ccc(-c4ccc(C(F)(F)F)c(S(N)(=O)=O)c4-c4nnn[nH]4)cc3)CC2)CC1` (stereo not drawn) [Example 787, 4′-{1-[4-(aminomethyl)cyclohexyl]piperidin-4-yl}-2-(1H-tetrazol-5-yl)-4-(trifluoromethyl)biphenyl-3-sulfonamide], the results for the IC50 on NDM-1, on IMP-1 and at VIM-1 (setting [4]) were 7.09 nM, 1.71 nM and 8.1 nM, respectively. Further, the “Escherichia coli MITC95” value in assay [1] amounted to 1.563 µM. Also, the “Klebsiella pneumoniae MITC95” value in assay [2] was found to be 25 µM. Also, in assay [3], the “Serratia marcescens MITC95” value was determined as 3.125 µM.

The values are drawn from patent publication US9708336B2, “Metallo-beta-lactamase inhibitors” (priority 2014, dated 2017).
